The source of these data is patent publication US12612424B2, “HPK1 inhibitors and uses thereof” (Regor Pharmaceuticals, Inc., priority 2019, dated 2026).

Each structure is given as a SMILES string. Read-outs that look alike come from different tables or passages of the source. Where only a bound is given, the exact number is not on record here.

The target in assay [1] is HPK1 (Homo sapiens, UniProt Q92918). Put plainly: HPK1 biochemical assay (ADP-GLO Kinase Assay). In outline: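 HPK1 (0.6 ng/μL final) activity was followed with MBP substrate and 10 μM ATP in Tris pH 7.5/MgCl2/BSA/DTT buffer, measured by ADP-Glo luminescence. Compounds were tested as 3-fold dilutions from 10 μM. IC50 came from a three-parameter logistic fit, with inhibition normalised to high/low controls.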
Sequence of HPK1 (Q92918 whole entry): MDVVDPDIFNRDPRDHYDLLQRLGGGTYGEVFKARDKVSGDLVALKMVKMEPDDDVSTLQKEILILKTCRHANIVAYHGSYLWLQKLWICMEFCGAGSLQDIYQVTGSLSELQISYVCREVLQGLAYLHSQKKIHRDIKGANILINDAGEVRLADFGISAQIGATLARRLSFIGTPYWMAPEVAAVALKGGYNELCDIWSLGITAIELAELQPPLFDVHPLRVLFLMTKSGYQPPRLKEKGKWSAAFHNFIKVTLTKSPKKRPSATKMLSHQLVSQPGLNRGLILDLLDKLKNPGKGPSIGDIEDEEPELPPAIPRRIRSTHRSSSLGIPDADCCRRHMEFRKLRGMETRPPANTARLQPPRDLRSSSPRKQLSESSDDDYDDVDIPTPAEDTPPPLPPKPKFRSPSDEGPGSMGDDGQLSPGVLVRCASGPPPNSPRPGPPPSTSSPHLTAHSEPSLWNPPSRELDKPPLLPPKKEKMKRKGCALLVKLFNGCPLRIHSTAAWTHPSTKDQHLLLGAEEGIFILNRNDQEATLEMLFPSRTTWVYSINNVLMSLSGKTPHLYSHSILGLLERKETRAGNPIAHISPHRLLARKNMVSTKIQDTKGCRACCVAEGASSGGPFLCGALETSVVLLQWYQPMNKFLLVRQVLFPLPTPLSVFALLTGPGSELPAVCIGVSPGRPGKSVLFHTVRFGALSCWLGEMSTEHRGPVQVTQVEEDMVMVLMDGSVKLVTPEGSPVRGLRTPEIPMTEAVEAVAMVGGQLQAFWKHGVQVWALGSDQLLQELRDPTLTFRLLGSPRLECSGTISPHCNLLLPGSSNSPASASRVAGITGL
(ADP-Glo turns the ADP formed in a reaction into a luminescent signal.)

Assay [2] concerns the target T1, JAK3 (Homo sapiens, UniProt P52333).
T1 construct: purchased Thermo fisher PV3855
In words: JAK3 biochemical assay (ADP-GLO Kinase Assay). Particulars: for JAKs/HPK1 IC50 Ratio, B* / JAKs/HPK1 IC50 Ratio, N*: ratio of JAK3 IC50 to HPK1 IC50; for JAKs/HPK1 IC50 Ratio, B*: first testing facility; for JAKs/HPK1 IC50 Ratio, N*: second testing facility. In short, it runs like this:
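Human JAK3 (0.78 ng) with 0.2 μg/μL Poly(E4Y1) and 4 μM ATP in 40 mM Tris pH 7.5, 20 mM MgCl2, 0.1 mg/ml BSA, 50 μM DTT, 1% DMSO; 60 min at 25 °C. ADP formed read by ADP-Glo luminescence. 10-dose 3-fold series from 10 μM; IC50 by three-parameter logistic fit.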

The mark [3] stands for this setting: B*: testing performed in a first testing facility, read-out: HPK1 IC50 (nM) Relative, B*.
The mark [4] stands for this setting: B*: testing performed in a first testing facility, read-out: JAK3 IC50 (nM) Relative, B*.
Setting [5] is: N*: testing performed in a second testing facility, read-out: HPK1 IC50 (nM) Relative, N*.
Setting [6] is: N*: testing performed in a second testing facility, read-out: JAK3 IC50 (nM) Relative, N*.

T1 sequence (P52333 781-1124 limits assumed): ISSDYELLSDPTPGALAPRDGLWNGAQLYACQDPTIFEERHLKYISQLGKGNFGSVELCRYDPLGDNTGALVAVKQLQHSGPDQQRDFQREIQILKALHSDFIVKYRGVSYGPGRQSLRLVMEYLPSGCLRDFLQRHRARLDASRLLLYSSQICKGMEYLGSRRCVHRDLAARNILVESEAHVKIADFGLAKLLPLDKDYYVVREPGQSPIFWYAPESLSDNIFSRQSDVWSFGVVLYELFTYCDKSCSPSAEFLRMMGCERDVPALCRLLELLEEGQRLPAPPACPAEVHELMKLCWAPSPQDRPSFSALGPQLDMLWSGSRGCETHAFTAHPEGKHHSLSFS

With `COc1cc2c(cc1Nc1ncc(Cl)c(-n3cc(C(N)=O)c4ccccc43)n1)CN(C)CC2` [Example 34], the half-maximal inhibitory concentration (IC50) (usually the point on the concentration scale where inhibition reaches its midpoint) in assay [1] (setting [3]) is not above 100 nM; in assay [2] (setting [4]), 500 to 1000 nM. Further, the “JAKs/HPK1 IC50 Ratio, B*” value in assay [2] turned out to be 101.
For `COc1cc2c(cc1Nc1ncc(Cl)c(N3CCc4cc(F)ccc43)n1)CN(C)CC2` [Example 20, N-(5-chloro-4-(5-fluoroindolin-1-yl)pyrimidin-2-yl)-6-methoxy-2-methyl-1,2,3,4-tetrahydroisoquinolin-7-amine], in that order: not above 100 nM, 100 to 500 nM and 88.
With `COc1cc2c(cc1Nc1ncc(Cl)c(N3CC(C(N)=O)c4ccccc43)n1)CN(C)CC2` (stereo not drawn) [Example 33, 1-(5-Chloro-2-((6-methoxy-2-methyl-1,2,3,4-tetrahydroisoquinolin-7-yl)amino)pyrimidin-4-yl)indoline-3-carboxamide], the IC50 in assay [1] (setting [3]) and in assay [2] (setting [4]) was not above 100 nM in each case. For the same compound, the “JAKs/HPK1 IC50 Ratio, B*” value in assay [2] amounted to 140.
Regarding `COc1cc2c(cc1Nc1ncc(Cl)c(N3CCc4ccccc43)n1)CNCC2` [Example 23, N-(5-chloro-4-(indolin-1-yl)pyrimidin-2-yl)-6-methoxy-1,2,3,4-tetrahydroisoquinolin-7-amine], the IC50 in assay [1] (setting [3]) was not above 100 nM; in assay [2] (setting [4]), 100 to 500 nM. Moreover, in assay [2], the “JAKs/HPK1 IC50 Ratio, B*” value worked out at 59.
`COc1cc2c(cc1Nc1ncc(Cl)c(N3CCc4ccc(F)cc43)n1)CN(C)CC2` [Example 21, N-(5-chloro-4-(6-fluoroindolin-1-yl)pyrimidin-2-yl)-6-methoxy-2-methyl-1,2,3,4-tetrahydroisoquinolin-7-amine]: the figures for the half-inhibitory concentration (IC50) in assay [1] (setting [3]) and in assay [2] (setting [4]) were not above 100 nM and more than 1000 nM, respectively. The “JAKs/HPK1 IC50 Ratio, B*” value in assay [2] was 280.
Take `COc1cc2c(cc1Nc1ncc3ccn(-c4ccccn4)c3n1)CN(C)CC2` [Example 37, 6-Methoxy-2-methyl-N-(7-(pyridin-2-yl)-7H-pyrrolo[2,3-d]pyrimidin-2-yl)-1,2,3,4-tetrahydroisoquinolin-7-amine]: the IC50 was not above 100 nM in assay [1] (setting [3]), not above 100 nM in assay [1] (setting [5]) and more than 1000 nM in assay [2] (setting [6]). In addition, in assay [2], the “JAKs/HPK1 IC50 Ratio, N*” value came out at 608.
Turning to `COc1cc2c(cc1Nc1ncc(Cl)c(-n3ncc4ccccc43)n1)CN(C)CC2` [Example 24, N-(5-Chloro-4-(1H-indazol-1-yl)pyrimidin-2-yl)-6-methoxy-2-methyl-1,2,3,4-tetrahydroisoquinolin-7-amine], the 50% inhibitory concentration (IC50) in assay [1] (setting [3]) was not above 100 nM; in assay [2] (setting [4]), more than 1000 nM. Also, the “JAKs/HPK1 IC50 Ratio, B*” value in assay [2] was determined as 79.
`COc1cc2c(cc1Nc1ncc(Cl)c(-n3cc(C(=O)O)c4ccccc43)n1)CN(C)CC2` [Example 35]: the IC50 in assay [1] (setting [3]) was not above 100 nM; in assay [2] (setting [4]), 100 to 500 nM. The “JAKs/HPK1 IC50 Ratio, B*” value in assay [2] is recorded as 78.
In the same order, the values of `COc1cc2c(cc1Nc1ncc(Cl)c(N3CCc4ccccc43)n1)CN(C(C)C)CC2` [Example 22, N-(5-chloro-4-(indolin-1-yl)pyrimidin-2-yl)-2-isopropyl-6-methoxy-1,2,3,4-tetrahydroisoquinolin-7-amine] are not above 100 nM, more than 1000 nM and 223.
Turning to `COc1nc2c(cc1Nc1ncc(Cl)c(N3CCc4ncccc43)n1)CN(C)CC2` [Example 29, N-(5-Chloro-4-(2,3-dihydro-1H-pyrrolo[3,2-b]pyridin-1-yl)pyrimidin-2-yl)-2-methoxy-6-methyl-5,6,7,8-tetrahydro-1,6-naphthyridin-3-amine], the IC50 in assay [1] (setting [3]) was not above 100 nM; in assay [1] (setting [5]), not above 100 nM; in assay [2] (setting [4]), 500 to 1000 nM; in assay [2] (setting [6]), 100 to 500 nM. Moreover, the “JAKs/HPK1 IC50 Ratio, B*” value in assay [2] came to 223. Besides, in assay [2], the “JAKs/HPK1 IC50 Ratio, N*” value is 286.
For the compound `COc1cc2c(cc1Nc1ncc3ccn(-c4ccccc4)c3n1)CN(C)CC2` [Example 36, 6-methoxy-2-methyl-N-(7-phenyl-7H-pyrrolo[2,3-d]pyrimidin-2-yl)-1,2,3,4-tetrahydroisoquinolin-7-amine], the values for the half-inhibitory concentration (IC50) in assay [1] (setting [3]), in assay [1] (setting [5]) and in assay [2] (setting [6]) were not above 100 nM, not above 100 nM and more than 1000 nM, respectively. Besides, in assay [2], the “JAKs/HPK1 IC50 Ratio, N*” value amounted to 287.
With `COc1cc2c(cc1Nc1ncc(Cl)c(N3CC(C(=O)O)c4ccccc43)n1)CN(C)CC2` (stereo not drawn) [Example 32, 1-(5-Chloro-2-((6-methoxy-2-methyl-1,2,3,4-tetrahydroisoquinolin-7-yl)amino)pyrimidin-4-yl)indoline-3-carboxylic acid], the half-inhibitory concentration (IC50) in assay [1] (setting [3]) and in assay [2] (setting [4]) was not above 100 nM throughout. Besides, the “JAKs/HPK1 IC50 Ratio, B*” value in assay [2] was 90.
As to `COc1cc2c(cc1Nc1ncc(Cl)c(N3CC(C)(C)c4ccccc43)n1)CN(C)CC2` [Example 25, N-(5-Chloro-4-(3,3-dimethylindolin-1-yl)pyrimidin-2-yl)-6-methoxy-2-methyl-1,2,3,4-tetrahydroisoquinolin-7-amine], the concentration for half-maximal inhibition (IC50) in assay [1] (setting [3]) was not above 100 nM; in assay [2] (setting [4]) it was 100 to 500 nM. In addition, the “JAKs/HPK1 IC50 Ratio, B*” value in assay [2] is 218.
In the case of `COc1cc2c(cc1Nc1ncc(Cl)c(-n3cc(P(C)(C)=O)c4ccccc43)n1)CN(C)CC2` [Example 1, (1-(5-Chloro-2-((6-methoxy-2-methyl-1,2,3,4-tetrahydroisoquinolin-7-yl)amino)pyrimidin-4-yl)-1H-indol-3-yl)dimethylphosphine oxide], the IC50 is not above 100 nM in assay [1] (setting [3]), not above 100 nM in assay [1] (setting [5]), more than 1000 nM in assay [2] (setting [4]) and more than 1000 nM in assay [2] (setting [6]). Further, the “JAKs/HPK1 IC50 Ratio, B*” value in assay [2] was found to be 285. The “JAKs/HPK1 IC50 Ratio, N*” value in assay [2] is given as more than 558.
Consider `COc1nc2c(cc1Nc1ncc(Cl)c(N3CCc4ccccc43)n1)CN(C)CC2` [Example 19, N-(5-chloro-4-(indolin-1-yl)pyrimidin-2-yl)-2-methoxy-6-methyl-5,6,7,8-tetrahydro-1,6-naphthyridin-3-amine], for which the IC50 in assay [1] (setting [3]) was not above 100 nM; in assay [1] (setting [5]) it was not above 100 nM; in assay [2] (setting [4]), 500 to 1000 nM; in assay [2] (setting [6]) it was 100 to 500 nM.
